# Where two headings read alike, the source gives them in different places.
# What was measured:
# [1] = physchem; settings: for Hydrolytic stability in the preliminary test: pH 4, 7 and 9, 50 °C
# Experimental: The incubation was performed in the dark, in order to avoid the influence of the photolysis on degradation of the analytes. The water used for the preparation of buffers was autoclaved, all glassware was clean, flushed with methanol, and dried in high temperature. Samples were closed in glass tubes with a sealed cap. The air from above the solution was removed by a nitrogen stream just before capping. In the preliminary test, solutions of single analytes were prepared in each tested pH: 4, 7, and 9, which is required by the OECD guidelines. There was also a blank sample prepared for each pH. Samples in the preliminary test were prepared in two parallel replicates. Moreover, the complete preliminary test was repeated twice. The preliminary test was performed at 50 °C for 5 days. […] In the case of the extended tests, 7 measuring points were provided during the time of the test. Each measuring point was performed in two parallel replicates. […] The test was conducted for 30 days or to 90 % elimination of a compound. Obtained results were used to determine the hydrolysis rate constant (k) using equation: 1 lnCt/C0=kt
# The HPLC-UV/Vis technique was applied to determine the level of hydrolytic degradation of the analytes. In the preliminary test, the control and blank samples were analyzed at the beginning and the end of the test. […] In the extended test, the samples collected in the time intervals were analyzed, and peak areas were compared to those obtained at the beginning of the test. This was used to determine the kinetic of this hydrolysis process by using the Equation 1. In general, each analyte was analyzed by a simple HPLC method with UV/Vis detection. Gemini C18 (Phenomenex, USA), 5 μm, 110 Å, 150 mm × 4.6 mm chromatographic column was applied for each method and three different mobile phases were used (water or 0.1 % HCOOH) mixed with the acetonitrile. The conditions applied during the LC-MS analysis with an ion trap detector for the qualitative analysis of the samples collected after the extended tests at 20 and 70 °C are presented in the Table S2.
# [2] = parameters: method as in Legay et al. [2014]; settings: ref Legay et al. [2014]; cited from earlier work
# [3] = parameters: method as in Yadav et al. [2012]; settings: also under several stress conditions; ref Yadav et al. [2012]; cited from earlier work
# [4] = HPLC water with 4 % DMSO, ref Negreira et al. ([2013a]), cited from earlier work; for Degradation level / loss: 25 °C, 24 h incubation
# [5] = parameters: method as in Negreira et al. ([2013b]); settings: acidification of samples, organic modifier such as 50 % methanol or DMSO, previously tested conditions; ref Negreira et al. ([2013b]); cited from earlier work
# [6] = parameters: method as in McElnay et al. ([1988]) and Vrignaud et al. ([2015]); settings: ref McElnay et al. ([1988]) and Vrignaud et al. ([2015]); cited from earlier work
# [7] = parameters: method as in Białk-Bielińska et al. [2017]; settings: ref Białk-Bielińska et al. [2017]; cited from earlier work
SMILES,half-life ([1]; buffer),Hydrolytic stability in the preliminary test ([1]; 5 days),Stability in aqueous solutions for medication purposes [2],Temperature up to which found stable [3],"Stability in 24 h test ([4]; 4 °C, 24 h)",Long-term stability at 4 °C ([4]; 4 °C),"Stability in 24 h test ([4]; 15 °C, 24 h)",Degradation level / loss [4],half-life ([1]; aqueous buffer),"Degradation level in the preliminary test ([1]; pH 4, 50 °C, 5 days, dark)",Stability after acidification and with organic modifier [5],Time of proved stability [6],Hydrolytic stability under ecotoxicological test conditions [7],Photolytic stability under ecotoxicological test conditions [7],"Concentration decreased to ([4]; 4 °C, after 9 days)","Disappeared from solution ([4]; 15 °C, 24 h)"
"O=c1[nH]cc(F)c(=O)[nH]1 [5-FU, 5-fluorouracil]",≥ 365 days,hydrolytically stable,stable,up to 275 °C,stable,stable for 1 month,still stable,11%,–,–,–,–,–,–,–,–
"CN(Cc1cnc2nc(N)nc(N)c2n1)c1ccc(C(=O)N[C@@H](CCC(=O)O)C(=O)O)cc1 [MTX, methotrexate]",–,hydrolytically stable,–,–,stable,–,–,65%,≥ 365 days,0%,stable,at least 24 h,hydrolytically stable,susceptible to photolysis,around 50%,more than 50%

# Source: PMC8536627, “Hydrolytic stability of anticancer drugs and one metabolite in the aquatic environment” (Environmental Science and Pollution Research International, 2021)
